Laboratory results as given in patent publication US7976582B2, “Bleaching of substrates” (Conopco, Inc., priority 2007, dated 2011).

How the values were obtained:
[1] = Raw cotton bleaching, high starting pH left to reduce during bleaching (Experiment 3); conditions: 10 microM catalyst, H2O2, DTPA, 77° C., 30 minutes; pH(init) 10.7, pH(final) 9.7
Method: A batch of raw cotton with a Berger Whiteness value of 0 was treated as follows: 6 grams of the cotton was immersed into temperature-controlled beaker glasses a 60 ml solution (cloth/liquor ratio of 1/10) containing 10 microM of [Mn2O3(Me3-TACN)2] (PF6)2.H2O, 2.3% H2O2 (equals to 6.66 ml (35%)/l; w/w wrt cotton), 0.4 g/l H5-DTPA (ex Akzo-Nobel; trade name Dissolvine D50; purity is 50%), and 2 g/l Sandoclean PCJ (ex Clariant). The temperature of the experiment was 77° C.
The pH of water containing Sandoclean, Na5DTPA, cotton and appropriate amount of NaOH was determined at room temperature, heated to 77° C., the pH value was monitored and then hydrogen peroxide was added. Then a correction for the addition of hydrogen peroxide was made by adding some extra NaOH. Then the catalyst was added and left for 30 minutes under stirring. The cloths were then rinsed and washed as described above. The pH of the solution after the bleaching stage was determined after allowing the solution cooled down to room temperature. As a comparative experiment to determine the effect of the manganese-triazacyclononane compound, no catalyst was added. The values of the whiteness are expressed in Berger units, as defined above.

[2] = 20° C.; cited from earlier work
[3] = Raw cotton bleaching, NaOH/H2O2 pretreatment without catalyst, then lower pH and add catalyst (Experiment 2)
Method: Raw cotton with a Berger Whiteness value of 5.5+/−1.0 was treated as follows: 6 grams of the cotton was immersed into temperature-controlled beaker glasses of a 60 ml solution (cloth/liquor ratio of 1/10), containing 0.5 g/l DTPA, 2 g/l Sandoclean PCJ, 2.3% H2O2 (equals to 6.66 ml (35%)/1; w/w wrt cotton), for 15 minutes at 75° C. Subsequently, sulphuric acid was added (1M) until the desired pH was added followed by 20 microM of [Mn2O3(Me3-TACN)2] (PF6)2.H2O and the mixture left for 15 minutes with continuous stirring. No NaOH solution was added during the bleaching process in the presence of catalyst. After the allocated time, the cloths are washed and dried as exemplified above. The values of the whiteness are expressed in Berger units, as defined above.
Table 2: Whiteness (Berger) results obtained using 20 microM [Mn2O3(Me3-TACN)2] (PF6)2.H2O in an unbuffered solution with 0.2 g/l DTPA at 75° C. for 15 minutes, after having the cloths allowed to pretreat with NaOH/H2O2 for 15 minutes at 75° C. (entry 1) vs adding the catalyst at the beginning of the bleaching experiment at pH 9.75.

[4] = Raw cotton bleaching, pH control by continuously adding NaOH (Experiment 1); conditions: for Whiteness (Berger) Wb: 20 microM catalyst, unbuffered, 0.2 g/l DTPA, H2O2, 80° C., 30 minutes
Method: Raw cotton with a Berger Whiteness value of 5.5+/−1.0 was treated as follows: 6 grams of the cotton was immersed into temperature-controlled beaker glasses a 60 ml solution (cloth/liquor ratio of 1/10) containing 20 microM of [Mn2O3(Me3-TACN)2] […]
Drops of NaOH (1M) were added to maintain the pH (within 0.2 pH units) for 30 minutes of agitated solutions at 75 to 80° C. The pH was monitored with a pH meter. Subsequently the cotton swatches were rinsed with 2 to 3 liters of hot demineralised water (80° C.), then washed with copious amounts of demineralised water, spun in a spin drier for 3 minutes and dried overnight under ambient conditions. The optical properties of the cloths were then measured using a Minolta spectrophotometer CM-3700d, using L, a, b values which are converted to Berger Whiteness values.
The values of the whiteness is expressed in Berger units. The formula of Berger whiteness is given below: Wberger=Y+a.Z−b.X, where a=3.448 and b=3.904.
The values X, Y, Z are the coordinates of the achromatic point.

## CN1CCN(C)CCN(C)CC1.CN1CCN(C)CCN(C)CC1.F[P-](F)(F)(F)(F)F.F[P-](F)(F)(F)(F)F.O.[Mn+4].[Mn+4].[O-2].[O-2].[O-2] [[Mn2O3(Me3-TACN)2](PF6)2•H2O, [Mn2O3(Me3-TACN)2] (PF6)2.H2O]
[1]
  Whiteness (Berger) Wb: 57.6 Wb
[2]
  water solubility: 10.8 g per liter
[3]; 20 microM catalyst, 0.2 g/l DTPA, 75° C., 15 minutes after 15 minutes NaOH/H2O2 pretreatment, pH(step 1) 11, pH(step2) 10, pH(final) 9.4
  Whiteness (Berger) Wb: 60.0 Wb
[3]; catalyst added at the beginning, no pretreatment, pH 9.75, pH(final) 7.6
  Whiteness (Berger) Wb: 51.0 Wb
[4]; pH(init) 9.75, pH(final) 7.3 (pH not controlled)
  Whiteness (Berger) Wb: 51.0 Wb
[4]; pH(init) 10.0, pH(final) 9.5 (pH controlled with NaOH)
  Whiteness (Berger) Wb: 63.1 Wb
[4]; in the presence of catalyst, without DTPA added
  Whiteness lower without DTPA than the system with DTPA: about 10 Wb
